# Measurements from paper PMC7875316 (Biochemistry, 2020).
# Molecular target: T1, ClpL (Streptococcus mutans, UniProt Q8DUH3)
# T1 sequence (Q8DUH3 1-701): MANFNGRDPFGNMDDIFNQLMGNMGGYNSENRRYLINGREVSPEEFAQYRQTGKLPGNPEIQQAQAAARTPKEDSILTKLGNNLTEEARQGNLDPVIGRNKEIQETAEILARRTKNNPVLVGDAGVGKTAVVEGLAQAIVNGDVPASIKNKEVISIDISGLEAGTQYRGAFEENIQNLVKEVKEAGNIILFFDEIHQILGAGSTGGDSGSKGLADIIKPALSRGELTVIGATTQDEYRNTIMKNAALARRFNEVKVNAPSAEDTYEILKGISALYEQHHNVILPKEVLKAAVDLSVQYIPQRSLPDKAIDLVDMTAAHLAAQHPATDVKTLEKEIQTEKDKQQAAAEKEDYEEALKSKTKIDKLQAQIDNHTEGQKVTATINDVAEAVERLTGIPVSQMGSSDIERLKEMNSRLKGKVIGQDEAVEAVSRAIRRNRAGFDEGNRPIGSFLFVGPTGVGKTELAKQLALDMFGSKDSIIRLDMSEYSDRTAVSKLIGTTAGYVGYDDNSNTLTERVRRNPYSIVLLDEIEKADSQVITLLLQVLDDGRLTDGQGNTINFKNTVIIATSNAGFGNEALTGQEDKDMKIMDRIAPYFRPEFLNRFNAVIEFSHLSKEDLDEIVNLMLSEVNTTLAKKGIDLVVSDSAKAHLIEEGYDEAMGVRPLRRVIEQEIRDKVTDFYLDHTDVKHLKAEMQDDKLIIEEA
# Assay: protection from limited trypsin proteolysis, SDS-PAGE
# Type: binding
# Settings: 1 mM ADP (legend; methods say 5 mM), 20 mM MgCl2, room temperature
smiles,measurement,value
Nc1ncnc2c1ncn2[C@@H]1O[C@H](COP(=O)(O)OP(=O)(O)O)[C@@H](O)[C@H]1O [ADP],"protection from limited trypsin proteolysis, SDS-PAGE",Addition of ATP or ADP dramatically increased the stability of ClpL to trypsin digestion.
